For experiment [1], the system named is TNFα production in RAW 264.7 macrophage cell line. Briefly: Mouse TNF alpha quantification assay (LPS-stimulated macrophages, ELISA). It counts as cell-based. The following applies: RAW264.7, RAW 264.7 murine leukemia virus transformed macrophage cell lines, LPS stimulation, read-out: TNF-α % Inhibition at 30 μM.
Experiment [2] relates to IL6 production in RAW 264.7 macrophage cell line. Briefly: Mouse IL6 quantification assay (LPS-stimulated macrophages, ELISA). It is filed as cell-based. The following applies: RAW264.7, RAW 264.7 murine leukemia virus transformed macrophage cell lines, LPS stimulation, read-out: IL-6 % Inhibition at 30 μM.

In general, inhibition refers to the share of the control response that was lost under treatment. Turning to `O=C(CCn1ccc2ccccc21)Nc1nnc(-c2ccccn2)[nH]1` [drawing 1934], the inhibition at 30 µM in experiment [1] and in experiment [2] was 1 to 25% throughout.

For the compound `Oc1nc(-c2ccccn2)nc2c(-c3cccc4c3OCO4)csc12` [drawing 2242], the inhibition at 30 µM in experiment [1] and in experiment [2] was 51 to 75% throughout.

As to `COCC1CCN(C(=O)c2csc3c(O)nc(-c4ccccn4)nc23)CC1` [drawing 2102], the inhibition at 30 µM lay within 1 to 25% in experiment [1] and 76 to 100% in experiment [2].

`COc1nccc(CCNC(=O)c2csc3nc(-c4ccccn4)nc(N4CCOCC4)c23)n1` [drawing 2289]: the inhibition at 30 µM is 0% in experiment [1] and 26 to 50% in experiment [2].

For the compound `O=C(Nc1nnc(-c2ccccn2)[nH]1)C1COc2ccccc2C1` (stereo not shown) [drawing 1955], the inhibition at 30 µM lay within 1 to 25% in experiment [1] and 26 to 50% in experiment [2].

For the compound `CN(C)Cc1ccc(-c2csc3c(O)nc(-c4ccccn4)nc23)cc1F` [drawing 2238], the inhibition at 30 µM lay in the range of 51 to 75% in experiment [1] and 76 to 100% in experiment [2].

Turning to `Cc1nc(-c2ccccn2)nc(O)c1CCC(=O)NC1CCc2ccccc21` (stereo not shown) [drawing 2033], the inhibition at 30 µM in experiment [1] and in experiment [2] was 26 to 50% throughout.

Turning to `CN1CCN(c2nc(-c3ccccn3)nc3scc(C(=O)NCCc4cnc(O)nc4)c23)CC1` [drawing 2291], the inhibition at 30 µM in experiment [1] and in experiment [2] was 26 to 50% throughout.

Turning to `CC(OCC(F)(F)F)C(=O)Nc1nnc(-c2ccccn2)[nH]1` (stereo not shown) [drawing 1948], the inhibition at 30 µM is 1 to 25% in experiment [1] and 0% in experiment [2].

Take `Nc1nc(-c2ccccn2)nc2c(-c3ccccc3)csc12` [drawing 2251]: the figures for the inhibition at 30 µM in experiment [1] and in experiment [2] were 51 to 75% and 76 to 100%, respectively.

Consider `c1ccc(-c2csc3nc(-c4ccccn4)nc(N4CCOCC4)c23)cc1` [drawing 2155], for which the inhibition at 30 µM in experiment [1] and in experiment [2] was 1 to 25% each time.

Consider `O=C(c1csc2c(O)nc(-c3ccccn3)nc12)N1CCC(N2CCOCC2)CC1` [drawing 2105], for which the inhibition at 30 µM in experiment [1] is 0%; in experiment [2], 1 to 25%.

Take `COCCNc1nc(-c2nccn2C)nc2sc(-c3ccc(OC)cc3)c(-c3ccccc3)c12` [drawing 2424]: the inhibition at 30 µM in experiment [1] was in the range of 51 to 75%; in experiment [2], 76 to 100%.

Consider `COc1nc(-c2cn(C)cn2)nc2sc(-c3ccncc3)c(-c3ccccc3)c12` [drawing 2358], for which the inhibition at 30 µM lay within 1 to 25% in experiment [1] and 51 to 75% in experiment [2].

Take `COc1cccc(CCC(=O)Nc2nnc(-c3ccccn3)[nH]2)c1` [drawing 1928]: the results for the inhibition at 30 µM in experiment [1] and in experiment [2] were 1 to 25% and 0%, respectively.

For `CC(C)(C(=O)Nc1nc(-c2ccccn2)nc2sccc12)c1ccc(C#N)cc1` [drawing 2178], the inhibition at 30 µM was in the range of 1 to 25% in experiment [1] and 76 to 100% in experiment [2].

In the case of `Oc1nc(-c2ccccn2)nc2c(-c3ccc(F)cc3F)csc12` [drawing 2263], the inhibition at 30 µM in experiment [1] fell in the range of 26 to 50%; in experiment [2], 76 to 100%.

`Oc1nc(-c2ccccn2)nc2c(-c3cc(CN4CCCC4)ccc3F)csc12` [drawing 2324]: the inhibition at 30 µM is 0% in experiment [1] and 51 to 75% in experiment [2].

`O=C(c1csc2c(O)nc(-c3ccccn3)nc12)N1CCC(c2cccnc2)CC1` [drawing 2109]: the inhibition at 30 µM in experiment [1] is 1 to 25%; in experiment [2], 76 to 100%.

On to `N#Cc1ccccc1OCC(=O)Nc1nnc(-c2ccccn2)[nH]1` [drawing 1954], for which the inhibition at 30 µM in experiment [1] was 0%; in experiment [2], 1 to 25%.

For `COc1cc2c(cc1OC)CCN(C(=O)c1csc3c(O)nc(N)nc13)CC2` [drawing 2099], the inhibition at 30 µM in experiment [1] and in experiment [2] was 1 to 25% in each case.

For the compound `COc1cnc(CNC(=O)c2c(C)sc3c(O)nc(-c4ccccn4)nc23)[nH]c1=O` [drawing 2350], the figures for the inhibition at 30 µM in experiment [1] and in experiment [2] were 1 to 25% and 0%, respectively.

As for `O=C(Nc1nnc(-c2ccccn2)[nH]1)c1ccn(-c2ccccc2)n1` [drawing 1935], the inhibition at 30 µM in experiment [1] and in experiment [2] was 1 to 25% each time.

`Cc1ccc(CC(=O)Nc2nnc(-c3ccccn3)[nH]2)cc1` [drawing 1943]: the values for the inhibition at 30 µM in experiment [1] and in experiment [2] were 0% and 1 to 25%, respectively.

In the case of `COC(=O)c1csc2nc(-c3ccccn3)nc(N)c12` [drawing 2287], the inhibition at 30 µM in experiment [1] was 0%; in experiment [2], 51 to 75%.

As for `CCC(C)c1csc2c(OC)nc(-c3ccccn3)nc12` (stereo not shown) [drawing 2310], the inhibition at 30 µM in experiment [1] lay in the range of 1 to 25%; in experiment [2], 26 to 50%.

`CC(C(=O)Nc1nc(-c2ccccn2)nc2sccc12)c1ccc(C#N)cc1` (stereo not shown) [drawing 2210]: the inhibition at 30 µM in experiment [1] was 0%; in experiment [2], 51 to 75%.

Consider `Cc1sc2c(O)nc(-c3nccn3C)nc2c1-c1ccc(OCC(C)C)nc1` [drawing 2427], for which the inhibition at 30 µM in experiment [1] and in experiment [2] was 1 to 25% in each case.

As for `COc1cnc(CNC(=O)c2cc3nc(-c4ccccn4)nc(O)c3s2)[nH]c1=O` [drawing 2348], the inhibition at 30 µM in experiment [1] is 1 to 25%; in experiment [2], 0%.

Turning to `Oc1nc(-c2ccccn2)nc2c(-c3cc(Cl)cc(Cl)c3)csc12` [drawing 2241], the inhibition at 30 µM in experiment [1] was 1 to 25%; in experiment [2] it was 0%.

As for `CC(OCc1ccccc1)C(=O)Nc1nnc(-c2ccccn2)[nH]1` (stereo not shown) [drawing 1971], the inhibition at 30 µM is 0% in experiment [1] and 1 to 25% in experiment [2].

Turning to `O=C(c1csc2c(O)nc(-c3ccccn3)nc12)N1CCC(c2ccccc2)CC1`, the inhibition at 30 µM in experiment [1] fell in the range of 51 to 75%; in experiment [2], 76 to 100%.

As for `O=C(Nc1nc(-c2ccccn2)cs1)c1cccnc1` [drawing 2017], the inhibition at 30 µM in experiment [1] and in experiment [2] was 1 to 25% in each case.

As to `COc1ccc(-c2csc3[nH]c(-c4ccccn4)nc(=O)c23)cc1` [drawing 2023], the values for the inhibition at 30 µM in experiment [1] and in experiment [2] were 1 to 25% and 26 to 50%, respectively.

In the case of `COc1cnc(CNC(=O)c2csc3nc(-c4ccccn4)nc(N)c23)[nH]c1=O` [drawing 2344], the inhibition at 30 µM in experiment [1] and in experiment [2] was 1 to 25% each time.

On to `CS(=O)(=O)Cc1ccc(C(=O)Nc2nc(-c3ccccn3)cs2)cc1` [drawing 2013], for which the values for the inhibition at 30 µM in experiment [1] and in experiment [2] were 1 to 25% and 0%, respectively.

For `Oc1nc(-c2ccccn2)nc2c(-c3cncc(C(F)(F)F)c3)csc12` [drawing 2304], the values for the inhibition at 30 µM in experiment [1] and in experiment [2] were 0% and 1 to 25%, respectively.

`Nc1nc(O)c2sc(-c3cccc(C(=O)NC4CCNC4=O)c3)cc2n1` (stereo not shown) [drawing 2369]: the inhibition at 30 µM in experiment [1] and in experiment [2] was 1 to 25% in each case.

In the case of `Cc1c(C(=O)Nc2nnc(-c3ccccn3)[nH]2)oc2ccccc12` [drawing 1936], the inhibition at 30 µM was 1 to 25% in experiment [1] and 0% in experiment [2].

Take `O=C(c1csc2c(O)nc(-c3ccccn3)nc12)N1CCOC(c2ccccc2)C1` (stereo not shown) [drawing 2191]: the inhibition at 30 µM in experiment [1] is 0%; in experiment [2] it was 51 to 75%.

Consider `NC(=O)C1CCCN(c2nc(-c3ccccn3)nc3scc(-c4ccccc4)c23)C1` (stereo not shown) [drawing 2160], for which the inhibition at 30 µM in experiment [1] and in experiment [2] was 1 to 25% each time.

On to `O=C(COc1ccc2c(c1)CCC2)Nc1nnc(-c2ccccn2)[nH]1` [drawing 1978], for which the inhibition at 30 µM in experiment [1] is 0%; in experiment [2], 1 to 25%.

With `Nc1nc(O)c2sc(-c3cccc(C(=O)N4CCC(O)C4)c3)cc2n1` (stereo not shown) [drawing 2370], the inhibition at 30 µM in experiment [1] and in experiment [2] was 0% throughout.

Consider `COc1c(O)nc(-c2ccccn2)nc1Oc1cccc(C(F)(F)F)c1` [drawing 2384], for which the inhibition at 30 µM in experiment [1] is 26 to 50%; in experiment [2], 1 to 25%.

`O=C(CC(c1ccccc1)c1ccccc1)N1CCCc2c(O)nc(-c3ccccn3)nc21` [drawing 2086]: the inhibition at 30 µM in experiment [1] was 0%; in experiment [2], 26 to 50%.

Take `COCCNc1nc(-c2cn(C)cn2)nc2sc(-c3ccncc3)c(-c3ccccc3)c12` [drawing 2357]: the inhibition at 30 µM in experiment [1] is 1 to 25%; in experiment [2] it was 51 to 75%.

Take `CCOc1cc(C(=O)Oc2c(C)ccc(C)c2C)cc(OCC)c1OCC` [drawing 2057]: the inhibition at 30 µM in experiment [1] fell in the range of 1 to 25%; in experiment [2] it was 51 to 75%.

Regarding `COc1cnc(CN)[nH]c1=O` [drawing 2212], the inhibition at 30 µM in experiment [1] is 1 to 25%; in experiment [2], 0%.

Regarding `O=C(Nc1nnc(-c2ccccn2)[nH]1)c1cccc(NC(=O)C2CCCO2)c1` (stereo not shown) [drawing 1961], the inhibition at 30 µM in experiment [1] was 0%; in experiment [2] it was 1 to 25%.

As to `COC(=O)c1ccc(C(=O)NCC2(c3ccccc3OC)CCCC2)nc1` [drawing 2058], the values for the inhibition at 30 µM in experiment [1] and in experiment [2] were 1 to 25% and 0%, respectively.

As for `Oc1nc(-c2ccccn2)nc2c(-c3cc(F)ccc3OC(F)F)csc12` [drawing 2252], the inhibition at 30 µM in experiment [1] lay within 26 to 50%; in experiment [2], 76 to 100%.

As for `COc1ccc(CCNC(=O)c2csc3nc(-c4ccccn4)nc(N4CCS(=O)(=O)CC4)c23)cn1` [drawing 2246], the figures for the inhibition at 30 µM in experiment [1] and in experiment [2] were 0% and 26 to 50%, respectively.

As for `CC(C)(C)c1ccc(-c2csc3c(O)nc(-c4ccccn4)nc23)cc1` [drawing 2240], the inhibition at 30 µM in experiment [1] and in experiment [2] was 76 to 100% each time.

As to `COCC(C)Nc1nc(-c2ccccn2)nc2sc(C)c(-c3ccccc3)c12` (stereo not shown) [drawing 2039], the inhibition at 30 µM in experiment [1] and in experiment [2] was 76 to 100% throughout.

With `COc1cccc(CC2CN(C(=O)c3csc4c(O)nc(-c5ccccn5)nc34)CCN2)c1` (stereo not shown) [drawing 2223], the inhibition at 30 µM in experiment [1] and in experiment [2] was 1 to 25% in each case.

Take `COCCNc1nc(-c2nccn2C)nc2sc(C)c(-c3ccccc3)c12` [drawing 2411]: the inhibition at 30 µM lay within 26 to 50% in experiment [1] and 1 to 25% in experiment [2].

Values taken from patent US10940139B2, “Compounds that interact with the Ras superfamily for the treatment of cancers, inflammatory diseases, rasopathies, and fibrotic disease” (Shy Therapeutics LLC, priority 2017, dated 2021).
